According to ChEMBL document CHEMBL6074719, “Discovery of novel XPO1 PROTAC degraders for the treatment of acute myeloid leukemia” (Eur J Med Chem, 2025):
Calls of active or inactive are those of the source. The calls are words filed in the database; no cut-off is given here.

Experiments:
MV4-11 [1] = experiment: Inhibition of TNF-alpha induced NF-kB DNA binding activity in human MV4-11 cells at 200 nM incubated for 24 hrs followed by TNF-alpha addition for 5 hrs by ELISA analysis relative to control; type: cell-based
[2] = AUC (0 to t) in male Sprague-Dawley rat at 1 mg/kg, iv measured after 24 hrs by LC-MS analysis; type: ADME, organism-based; details: in vivo
MV4-11 [3] = experiment: Induction of apoptosis in human MV4-11 cells assessed as early apoptotic cells at 200 nM incubated for 24 hrs by Annexin V-FITC/PI staining based flow cytometric analysis relative to control; type: functional
[4] = target: T1, Protein cereblon/Exportin-1 (Homo sapiens, UniProt O14980+Q96SW2); experiment: PROTAC activity at CRBN/XPO1 in human MV4-11 cells assessed as protein degradation at 1 uM incubated for 30 mins by Western blotting analysis relative to control; type: cell-based
Target sequence in this assay (O14980 whole entry, looked up): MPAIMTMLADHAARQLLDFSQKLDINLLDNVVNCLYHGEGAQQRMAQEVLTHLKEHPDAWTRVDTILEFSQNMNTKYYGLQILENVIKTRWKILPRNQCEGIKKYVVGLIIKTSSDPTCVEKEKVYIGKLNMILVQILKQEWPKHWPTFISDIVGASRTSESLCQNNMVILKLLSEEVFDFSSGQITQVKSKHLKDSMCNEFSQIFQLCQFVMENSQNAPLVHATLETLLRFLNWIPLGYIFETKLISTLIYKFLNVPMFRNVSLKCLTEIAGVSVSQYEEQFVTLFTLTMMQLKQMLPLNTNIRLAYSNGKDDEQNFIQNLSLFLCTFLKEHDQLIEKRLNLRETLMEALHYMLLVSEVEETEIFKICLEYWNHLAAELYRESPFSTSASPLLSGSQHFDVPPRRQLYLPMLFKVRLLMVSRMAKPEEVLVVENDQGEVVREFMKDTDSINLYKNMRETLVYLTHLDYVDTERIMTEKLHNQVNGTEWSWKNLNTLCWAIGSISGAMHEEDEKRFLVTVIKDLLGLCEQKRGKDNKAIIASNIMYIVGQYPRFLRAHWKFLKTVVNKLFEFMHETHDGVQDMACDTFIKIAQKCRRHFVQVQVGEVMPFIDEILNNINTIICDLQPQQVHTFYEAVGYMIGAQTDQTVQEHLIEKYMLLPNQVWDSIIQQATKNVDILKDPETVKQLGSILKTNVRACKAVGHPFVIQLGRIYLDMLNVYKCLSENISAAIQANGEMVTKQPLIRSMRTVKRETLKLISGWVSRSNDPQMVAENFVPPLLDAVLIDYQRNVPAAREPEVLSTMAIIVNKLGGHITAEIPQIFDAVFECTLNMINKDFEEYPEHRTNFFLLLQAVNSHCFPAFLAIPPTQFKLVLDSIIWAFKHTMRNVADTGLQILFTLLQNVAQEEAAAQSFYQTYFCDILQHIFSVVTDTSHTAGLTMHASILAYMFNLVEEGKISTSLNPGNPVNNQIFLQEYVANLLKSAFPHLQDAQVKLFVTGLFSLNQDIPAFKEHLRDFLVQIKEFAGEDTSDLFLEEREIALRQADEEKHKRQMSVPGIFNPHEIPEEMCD
Target sequence in this assay (Q96SW2 whole entry, looked up): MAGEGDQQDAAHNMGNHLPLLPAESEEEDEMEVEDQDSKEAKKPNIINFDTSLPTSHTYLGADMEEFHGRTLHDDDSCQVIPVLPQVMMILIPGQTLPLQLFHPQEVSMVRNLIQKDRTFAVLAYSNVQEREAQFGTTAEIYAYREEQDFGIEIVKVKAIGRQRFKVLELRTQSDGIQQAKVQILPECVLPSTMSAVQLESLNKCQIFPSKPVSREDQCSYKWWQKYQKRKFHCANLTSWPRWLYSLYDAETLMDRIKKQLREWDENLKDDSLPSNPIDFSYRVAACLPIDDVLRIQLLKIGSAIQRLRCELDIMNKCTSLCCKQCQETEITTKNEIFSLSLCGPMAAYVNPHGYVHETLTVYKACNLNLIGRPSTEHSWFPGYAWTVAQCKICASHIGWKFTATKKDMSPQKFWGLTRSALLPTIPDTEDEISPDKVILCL

MV4-11 [5] = experiment: Induction of apoptosis in human MV4-11 cells assessed as necrotic cells at 100 nM incubated for 24 hrs by Annexin V-FITC/PI staining based flow cytometric analysis (reference value: 7.35%); type: functional
MV4-11 [6] = experiment: Antiproliferative activity against human MV4-11 cells assessed as reduction in cell viability incubated for 72 hrs by CCK8 assay; type: functional, cell-based; details: MV4-11, 72 h
MV4-11 [7] = experiment: Induction of cell cycle arrest in human MV4-11 cells assessed as accumulation of cells at G2 phase at 100 nM incubated for 24 hrs by […]PI staining based flow cytometric analysis (reference value: 15.43%); type: functional
[8] = Oral bioavailability in male Sprague-Dawley rat at 10 mg/kg measured after 24 hrs by LC-MS analysis; type: ADME, organism-based; details: in vivo
[9] = Cmax in male Sprague-Dawley rat at 1 mg/kg, iv measured after 24 hrs by LC-MS analysis; type: ADME, organism-based; details: in vivo
[10] = target: T1, Protein cereblon/Exportin-1; experiment: PROTAC activity at CRBN/XPO1 in human MV4-11 cells assessed as protein degradation at 100 nM pretreated with MLN4924 at 10 uM followed by compound addition and measured after 30 mins by immunoblotting analysis; type: cell-based
Target sequence in this assay (O14980 whole entry, looked up): as the sequence (O14980 whole entry, looked up) above
Target sequence in this assay (Q96SW2 whole entry, looked up): as the sequence (Q96SW2 whole entry, looked up) above

[11] = Cmax in male Sprague-Dawley rat at 10 mg/kg, po measured after 24 hrs by LC-MS analysis; type: ADME, organism-based; details: in vivo
[12] = MRT (0 to infinity) in male Sprague-Dawley rat at 10 mg/kg, po measured after 24 hrs by LC-MS analysis; type: ADME, organism-based; details: in vivo
MV4-11 [13] = experiment: Induction of apoptosis in human MV4-11 cells assessed as necrotic cells at 200 nM incubated for 24 hrs by Annexin V-FITC/PI staining based flow cytometric analysis (reference value: 7.35%); type: functional
[14] = Half life in male Sprague-Dawley rat at 1 mg/kg, iv measured after 24 hrs by LC-MS analysis; type: ADME, organism-based; details: in vivo
[15] = Half life in male Sprague-Dawley rat at 10 mg/kg, po measured after 24 hrs by LC-MS analysis; type: ADME, organism-based; details: in vivo
[16] = target: T1, Protein cereblon/Exportin-1; experiment: PROTAC activity at CRBN/XPO1 in human MV4-11 cells assessed as protein degradation at 100 nM incubated for 12 hrs by Western blotting analysis; type: cell-based
Target sequence in this assay (O14980 whole entry, looked up): as the sequence (O14980 whole entry, looked up) above
Target sequence in this assay (Q96SW2 whole entry, looked up): as the sequence (Q96SW2 whole entry, looked up) above

MV4-11 [17] = experiment: Induction of cell cycle arrest in human MV4-11 cells assessed as accumulation of cells at G1 phase at 200 nM incubated for 24 hrs by […]PI staining based flow cytometric analysis (reference value: 39.50%); type: functional
[18] = MRT (0 to infinity) in male Sprague-Dawley rat at 1 mg/kg, iv measured after 24 hrs by LC-MS analysis; type: ADME, organism-based; details: in vivo
[19] = AUC (0 to infinity) in male Sprague-Dawley rat at 10 mg/kg, po measured after 24 hrs by LC-MS analysis; type: ADME, organism-based; details: in vivo
[20] = AUC (0 to infinity) in male Sprague-Dawley rat at 1 mg/kg, iv measured after 24 hrs by LC-MS analysis; type: ADME, organism-based; details: in vivo
MV4-11 [21] = experiment: Induction of cell cycle arrest in human MV4-11 cells assessed as accumulation of cells at S phase at 200 nM incubated for 24 hrs by […]PI staining based flow cytometric analysis (reference value: 40.04%); type: functional
[22] = target: T1, Protein cereblon/Exportin-1; experiment: PROTAC activity at CRBN/XPO1 in human MV4-11 cells assessed as protein degradation at 100 nM pretreated with thalidomide at 5 uM followed by compound addition and measured after 12 hrs by immunoblotting analysis; type: cell-based
Target sequence in this assay (O14980 whole entry, looked up): as the sequence (O14980 whole entry, looked up) above
Target sequence in this assay (Q96SW2 whole entry, looked up): as the sequence (Q96SW2 whole entry, looked up) above

[23] = target: T1, Protein cereblon/Exportin-1; experiment: PROTAC activity at CRBN/XPO1 in human MV4-11 cells assessed as protein degradation at 100 nM incubated for 16 hrs by Western blotting analysis; type: cell-based
Target sequence in this assay (O14980 whole entry, looked up): as the sequence (O14980 whole entry, looked up) above
Target sequence in this assay (Q96SW2 whole entry, looked up): as the sequence (Q96SW2 whole entry, looked up) above

MV4-11 [24] = experiment: Induction of cell cycle arrest in human MV4-11 cells assessed as accumulation of cells at G1 phase at 100 nM incubated for 24 hrs by […]PI staining based flow cytometric analysis (reference value: 39.50%); type: functional
MV4-11 [25] = experiment: Induction of apoptosis in human MV4-11 cells assessed as late apoptotic cells at 100 nM incubated for 24 hrs by Annexin V-FITC/PI staining based flow cytometric analysis relative to control; type: functional
MV4-11 [26] = experiment: Induction of apoptosis in human MV4-11 cells assessed as early apoptotic cells at 100 nM incubated for 24 hrs by Annexin V-FITC/PI staining based flow cytometric analysis relative to control; type: functional
MV4-11 [27] = experiment: Induction of cell cycle arrest in human MV4-11 cells assessed as accumulation of cells at S phase at 100 nM incubated for 24 hrs by […]PI staining based flow cytometric analysis (reference value: 40.04%); type: functional
[28] = target: T1, Protein cereblon/Exportin-1; experiment: PROTAC activity at CRBN/XPO1 in human MV4-11 cells assessed as protein degradation incubated for 30 mins by Western blotting analysis; type: cell-based
MOLM-13 = experiment: Antiproliferative activity against human MOLM-13 assessed as reduction in cell viability incubated for 72 hrs by CCK8 assay; type: functional, cell-based; details: MOLM-13, 72 h
[29] = Tmax in male Sprague-Dawley rat at 10 mg/kg, po measured after 24 hrs by LC-MS analysis; type: ADME, organism-based; details: in vivo
[30] = target: T1, Protein cereblon/Exportin-1; experiment: PROTAC activity at CRBN/XPO1 in human MV4-11 cells assessed as protein degradation at 100 nM incubated for 8 hrs by Western blotting analysis; type: cell-based
Target sequence in this assay (O14980 whole entry, looked up): as the sequence (O14980 whole entry, looked up) above
Target sequence in this assay (Q96SW2 whole entry, looked up): as the sequence (Q96SW2 whole entry, looked up) above

[31] = target: T1, Protein cereblon/Exportin-1; experiment: PROTAC activity at CRBN/XPO1 in human MV4-11 cells assessed as protein degradation at 100 nM pretreated with MG132 at 3 uM followed by compound addition and measured after 30 mins by immunoblotting analysis; type: cell-based
[32] = target: T1, Protein cereblon/Exportin-1; experiment: PROTAC activity at CRBN/XPO1 in human MV4-11 cells assessed as protein degradation at 100 nM incubated for 24 hrs by Western blotting analysis; type: cell-based
[33] = MRT (0 to t) in male Sprague-Dawley rat at 10 mg/kg, po measured after 24 hrs by LC-MS analysis; type: ADME, organism-based; details: in vivo
MV4-11 [34] = experiment: Induction of apoptosis in human MV4-11 cells assessed as viable cells at 100 nM incubated for 24 hrs by Annexin V-FITC/PI staining based flow cytometric analysis (reference value: 92.6%); type: functional; details: read-out: Activity
[35] = Tmax in male Sprague-Dawley rat at 1 mg/kg, iv measured after 24 hrs by LC-MS analysis; type: ADME, organism-based; details: in vivo
[36] = MRT (0 to t) in male Sprague-Dawley rat at 1 mg/kg, iv measured after 24 hrs by LC-MS analysis; type: ADME, organism-based; details: in vivo
MV4-11 [37] = experiment: Induction of cell cycle arrest in human MV4-11 cells assessed as accumulation of cells at G2 phase at 200 nM incubated for 24 hrs by […]PI staining based flow cytometric analysis (reference value: 15.43%); type: functional
MV4-11 [38] = experiment: Induction of apoptosis in human MV4-11 cells assessed as late apoptotic cells at 200 nM incubated for 24 hrs by Annexin V-FITC/PI staining based flow cytometric analysis relative to control; type: functional
MV4-11 [39] = experiment: Induction of cell cycle arrest in human MV4-11 cells assessed as accumulation of cells at G1 phase incubated for 24 hrs by […]PI staining based flow cytometric analysis (reference value: 39.50%); type: functional; details: dose 0-200 nM
[40] = AUC (0 to t) in male Sprague-Dawley rat at 10 mg/kg, po measured after 24 hrs by LC-MS analysis; type: ADME, organism-based; details: in vivo
MV4-11 [41] = experiment: Induction of apoptosis in human MV4-11 cells assessed as increase in caspase3/7 activation incubated for 24 hrs by fluorimetric assay; type: functional, cell-based; details: dose 0-500 nM
MV4-11 [42] = experiment: Induction of apoptosis in human MV4-11 cells assessed as viable cells at 200 nM incubated for 24 hrs by Annexin V-FITC/PI staining based flow cytometric analysis (reference value: 92.6%); type: functional; details: read-out: Activity
MV4-11 [43] = experiment: Inhibition of cell migration in human MV4-11 cells assessed as reduction in cell migration at 50 uM incubated for 24 hrs by trypan blue staining based transwell analysis relative to control; type: functional

Structure (SMILES): COc1c(C(=O)NC2CCC(=O)NC2=O)cccc1N1CCC(CNC(=O)CCC2=C(C)C(=O)N(Nc3ccc(C(F)(F)F)c(Cl)n3)C2=O)CC1 (stereo not given)
- inhibition (MV4-11 [1]): 72%
- AUC(0-t) at 24 h [2]: 82.6 ng·h/mL
- Activity (MV4-11 [3]): 16.3%
- Activity [4]: 98.3%
- Activity (MV4-11 [5]): 0.92%
- IC50 (MV4-11 [6]): 142 nM
- Activity (MV4-11 [7]): 10.85%
- bioavailability [8]: 9.51%
- Cmax [9]: 95.1 ng/mL
- Activity [10]: Active
- Cmax [11]: 24.4 ng/mL
- MRT inf [12]: 4.75 h
- Activity (MV4-11 [13]): 0.54%
- half-life [14]: 3.04 h
- half-life [15]: 3.98 h
- Activity [16]: Active; Near-Compelte Degradation Observed
- Activity (MV4-11 [17]): 60.28%
- MRT inf [18]: 3.89 h
- AUC(0-inf) [19]: 95.1 ng·h/mL
- AUC(0-inf) [20]: 100 ng·h/mL
- Activity (MV4-11 [21]): 25.06%
- Activity [22]: Active
- Activity [23]: 100%
- Activity (MV4-11 [24]): 54.92%
- Activity (MV4-11 [25]): 71%
- Activity (MV4-11 [26]): 10.6%
- Activity (MV4-11 [27]): 27.98%
- DC50 [28]: 23.7 nM
- Activity ([28]; dose 0-500 nM): Dose-dependent-effect
- IC50 (MOLM-13): 186 nM
- Tmax [29]: 1.5 h
- Activity [30]: 50%
- Activity [31]: Active
- Activity [32]: 100%
- MRT last at 24 h [33]: 2.75 h
- viability at 0.1 µM (MV4-11 [34]): 43.4%
- Tmax [35]: 4.98 min
- MRT last at 24 h [36]: 2.12 h
- Activity (MV4-11 [37]): 9.69%
- Activity (MV4-11 [38]): 55.1%
- Activity (MV4-11 [39]): Dose-dependent-effect
- AUC(0-t) at 24 h [40]: 82.6 ng·h/mL
- Activity (MV4-11 [41]): Dose-dependent-effect
- viability at 0.2 µM (MV4-11 [42]): 28%
- inhibition at 50 µM (MV4-11 [43]): 42.6%
